Assays:
AhR = target: T1, AhR (Homo sapiens, UniProt P35869); test: AhR activation, AZ-AHR (stably co-transfected HepG2) reporter cells; type: cell-based; parameters: endogenous in cells; host or cells: AZ-AHR (HepG2); settings: to a much lesser extent than FKK 2 and 9; FIG. 6B
T1 sequence (P35869 11-848): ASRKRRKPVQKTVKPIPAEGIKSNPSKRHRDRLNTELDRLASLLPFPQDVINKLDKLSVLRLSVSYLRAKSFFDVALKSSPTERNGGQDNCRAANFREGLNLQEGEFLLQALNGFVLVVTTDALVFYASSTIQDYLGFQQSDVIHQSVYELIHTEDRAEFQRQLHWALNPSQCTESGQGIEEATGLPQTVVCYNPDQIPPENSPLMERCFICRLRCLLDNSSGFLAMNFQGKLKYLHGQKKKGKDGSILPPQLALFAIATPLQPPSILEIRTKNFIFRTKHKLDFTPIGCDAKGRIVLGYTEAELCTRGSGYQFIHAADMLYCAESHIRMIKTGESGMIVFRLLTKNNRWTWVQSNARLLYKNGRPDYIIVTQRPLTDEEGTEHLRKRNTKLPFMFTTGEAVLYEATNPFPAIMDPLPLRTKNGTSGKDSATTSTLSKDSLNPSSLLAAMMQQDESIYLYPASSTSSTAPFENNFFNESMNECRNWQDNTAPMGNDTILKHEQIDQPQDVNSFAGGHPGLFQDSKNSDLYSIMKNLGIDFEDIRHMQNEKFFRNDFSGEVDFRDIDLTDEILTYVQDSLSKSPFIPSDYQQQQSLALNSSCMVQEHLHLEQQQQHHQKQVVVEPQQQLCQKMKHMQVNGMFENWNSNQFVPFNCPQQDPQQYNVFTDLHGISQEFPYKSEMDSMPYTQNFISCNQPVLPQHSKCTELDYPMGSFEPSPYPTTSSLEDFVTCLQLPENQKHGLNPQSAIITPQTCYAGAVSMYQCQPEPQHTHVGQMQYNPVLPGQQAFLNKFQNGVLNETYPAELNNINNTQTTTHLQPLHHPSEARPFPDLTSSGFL
Procedure: (§1) FIG. 6A-6E. Activation and inhibition studies with different FKK compounds. (A) PXR activation, LS180 cells (upper), and PXR inhibition, LS180 cells, co-incubation with RIF (lower). (B) AhR activation, AZ-AHR cells (upper), and AhR inhibition, AZ-AHR cells, co-incubation with TCDD (lower). (C) GR activation, AZ-GR cells (upper), and VDR activation, IZ-VDRE cells (lower). (D) TR activation, PZ-GR cells (upper), and AR activation, AIZ-AR cells (lower). (E) Displacement of radiolabeled 9-cis-retinoic acid (RA) by FKK compounds.
(§2) All the synthesized compounds and intermediates were tested for their potential to activate PXR and/or AhR via luciferase assays. The PXR activation assays were performed by co-transfecting full-length expressing human PXR plasmid (91) and p3A4 luciferase reporter (92) in LS180 or Caco-2 cells. AhR activation conducted using stably co-transfected HepG2 reporter cells as previously described (93). […] With the exception of FKK6, there was no significant inhibition of TCDD-induced AhR activation. […] Independent verification of AhR activity of randomly selected compounds—FKK 5, 6 and 9—was performed in a separate laboratory (GHP). Nuclear receptor selectivity was assessed for FKK compounds for GR, ADR, TR and AR using cell-based luciferase assays previously described (93-102). There was no observed biologically significant (>2-fold) induction of nuclear receptor activity (FIG. 6C). RXR ligand displacement is only significant for FKK1 and FKK8 (FIG. 6D).

[1] = tested on: PXR target genes (CYP3A4, MDR1); settings: human
RXR = RXR ligand displacement (radiolabeled 9-cis-retinoic acid); type: binding; settings: displacement of radiolabeled 9-cis-retinoic acid
Procedure: as §1
as §2, with “There was no observed biologically significant (>2-fold) induction of nuclear receptor activity (FIG. 6C). RXR ligand displacement is only significant for FKK1 and FKK8 (FIG. 6D).” left out

PXR = target: T2, PXR (Homo sapiens, UniProt O75469); test: PXR inhibition, LS180 cells, co-incubation with RIF; type: cell-based; parameters: co-transfecting full-length expressing human PXR plasmid (91) and p3A4 luciferase reporter (92) in LS180 or Caco-2 cells; expressed in transfected cells; host or cells: LS180; settings: FIG. 6A
T2 sequence (O75469 1-434): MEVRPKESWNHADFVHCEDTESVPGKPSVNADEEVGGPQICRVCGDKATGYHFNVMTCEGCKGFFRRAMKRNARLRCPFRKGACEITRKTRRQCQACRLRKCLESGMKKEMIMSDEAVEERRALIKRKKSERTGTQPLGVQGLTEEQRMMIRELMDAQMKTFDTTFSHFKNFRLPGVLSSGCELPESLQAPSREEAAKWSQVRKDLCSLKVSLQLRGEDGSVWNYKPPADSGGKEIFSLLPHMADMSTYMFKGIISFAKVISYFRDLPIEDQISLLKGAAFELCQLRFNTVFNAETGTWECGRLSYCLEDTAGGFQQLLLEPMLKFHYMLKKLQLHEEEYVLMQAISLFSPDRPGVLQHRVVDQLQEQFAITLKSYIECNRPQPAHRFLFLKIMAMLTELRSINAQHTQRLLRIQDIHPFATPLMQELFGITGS
Procedure: as §1
as §2, with “There was no observed biologically significant (>2-fold) induction of nuclear receptor activity (FIG. 6C). RXR ligand displacement is only significant for FKK1 and FKK8 (FIG. 6D).” left out

- CYP3A4 mRNA induction [1]: 1.5 fold
- RXR ligand displacement (RXR): significant
Compound: O=S(=O)(c1ccccc1)n1c(C(O)Cc2cc3ccccc3[nH]2)cc2ccccc21 (stereo not shown) [FKK8]
- AhR activation profile (AhR): variable degrees of dose-dependent AhR activation
- rifampicin-dependent PXR antagonism (inhibition) (PXR): rifampicin-dependent PXR antagonism (inhibition)
